We go through six compounds from patent US4959182A, “Method and compositions providing enhanced chemiluminescence from 1,2-dioxetanes” (priority 1989, dated 1990).

A short description of data set [1]: Fluorescence of ester cleavage product / self-quenching of fluorescer. It is filed as physicochemical. An excerpt: (§1) However, the chemiluminescent decomposition of this dioxetane can be conveniently triggered at room temperature by removal of the silyl-protecting with fluoride ion to generate the unstable, aryloxide form which cleaves to yield intense blue light.
In general the molar ratio of the dioxetane to fluorescent compound is between about 1,000 to 1 and 1 to 1 whether in solution or in a solid composition.

Data set [2] concerns Alkaline Phosphatase from Bovine Intestinal Mucosa. In words: Alkaline phosphatase triggering of xanthenone-derived phosphate dioxetane. Format: biochemical. As to the method:
Triggering experiments were conducted using alkaline phosphatase from bovine intestinal mucosa suspension of 5.3 mg of protein (1100 units/mg protein) per mL in 3.2 M (NH4)2 SO4 ]and the phosphate-protected dioxetane at pH 10.3 in 0.75 M 2-amino-2-methyl- 1-propanol buffer. […]. […] The rate of decay of the emission is a function of enzyme concentration while the total light emission is independent of the enzyme concentration because of turnover of the enzyme. The chemiluminescence spectrum for the phosphatase-catalyzed decomposition was obtained at room temperature in the buffer solution.

The format of data set [3] is physicochemical.
The format of data set [4] is physicochemical. As to the method:
Rates for thermal decomposition of the stable dioxetanes were monitored by the decay of chemiluminescence of aerated solutions. A cylindrical Pyrex vial equipped with magnetic stir bar was filled with 3-4 mL of the reaction solvent, sealed with a Teflon-lined screw cap and placed in the thermostatted sample block of the chemiluminescence-measuring luminometer. Temperature control was provided by an external circulating water bath. Appropriate values for the instrument gain and optical slit size were selected. […]. The vial was sealed with a Teflon-lined screw cap to prevent evaporation when high temperatures were used. Measurement of the signal was begun by opening the shutter. The chemiluminescent decay was generally recorded for at least three half-lives. Calculation of the first-order rate constant (k) from the In (Intensity) vs. time data was performed by a computer program utilizing a standard least-squares treatment. The correlation coefficient (r) was typically at least 0.999 and k varied less than 5% between replicate samples.
Activation parameters for decomposition of the dioxetanes were calculated from plots of In k vs. 1/T (Arrhenius eq.) or In k/t vs. 1/T (Eyring eq.) by a standard least-squares linear regression analysis.
Activation Energies for Thermal Decomposition of Dioxetanes
This is another data set of the same source.

A further data set relates to Urease. As to the kind of experiment: Triggering of hydroxy-substituted dioxetane 2a with urease in fluorescent micelles. It is filed as biochemical. As to conditions: 10 μL of 3×10^-3 M 2a, CTAB and 3, room temperature. Here is the method:
5. Enzymatic Triggering of Hydroxy-Substituted Dioxetane 2a with Urease in the Prescence of Fluorescent Micelles. A solution was prepared using 160 mg of CTAB and 12.4 mg of fluorescein surfactant 3 in 200 mL of distilled water. A urea solution was made by dissolving 200 mg of urea in 100 mL of distilled water with EDTA added to give a final concentration of 0.4 mM. The substrate solution for the urease experiments was obtained by mixing 10mL of each stock solution.
Experiments were carried out with urease (Sigma) by incubation at room temperature for periods of 0.5 to 2 hours. […] The intensity of the luminescence provided a measure of the concentration of urease.

The nature of data set [5]: Base-triggered chemiluminescence of dioxetanes 2a/2b in DMSO, water, CTAB micelles and micelles with fluorescent co-surfactant. The text has this: The chemiluminescence quantum yield (.PHI.CL) for the decomposition of dioxetanes is defined as the ratio of einsteins of chemiluminescence emitted to moles of dioxetane decomposed. Sufficient energy is released during the reaction from the reaction enthalpy (ΔHR) plus the Arrhenius activation energy (Ea) to populate the singlet excited state of one of the carbonyl cleavage products. Therefore, the maximum quantum yield is 1.0. Another parameter of interest is the chemiexcitation quantum yield (.PHI.CE) which is defined as the ratio of excited states formed to dioxetane decomposed. The chemiexcitation quantum yield is related to the chemiluminescence quantum yield via the fluorescence quantum yield of the dioxetane cleavage (.PHI.F) through the equation: .phi.CL =.phi.CE X .phi.F.
The same procedure as those employed in the measurement of the decay kinetics was used for the determination of chemiluminescence quantum yields with the following modifications. An accurately measured aliquot of a dioxetane stock solution of known concentration was added to 3 mL of the pre-thermostatted organic solvent or aqueous buffer. The reaction was then triggered by adding the appropriate chemical reagent or enzyme. The total light intensity was integrated by a photon-counting luminometer using an RCA A-31034A gallium-arsenide PMT cooled to -78° C.
Spectra of the chemiluminescence from chemically or enzymatcally triggered dioxetanes were obtained by conducting the reaction in a 1-cm square quartz cuvette in the sample compartment of a Spex Fluorolog spectrofluorometer at ambient temperature. Correction for the decay of the chemiluminescence intensity during the wavelength scan was made by accumulating the spectrum in a ratio mode so that the observed spectrum was divided by the signal from an auxiliary detector (EMI 9781B) which measures the total signal as a function of time. The monochromator bandpass was typically 18 nm. For weakly emitting samples, several identical scans were performed and added together to improve the signal-to-noise ratio.
1. Triggering the Chemiluminescence of Hydroxy-Substituted Dioxetane 2a with Base.
2. […] Cationic surfactants such as cetyltrimethylammonium bromide (CTAB) can be used to increase rates for chemical triggering of chemiluminescence from appropriately substituted dioxetanes in aqueous solution. […] The dioxetane is solubilized in the micelles formed by the surfactant and NaOH is added to initiate the chemiluminescence. […] Typically, the experiments were carried out with [2b]=9.1×10^-5 M, [CTAB]=2×10^-3 M, and [OH^- ]=9.1×10^-5 M at 37° C.
Similar experiments were conducted with the benzothiazamide surfactant 4. […] Enzymatic Triggering of Phosphate-Substituted Dioxetane 2c.

Data set [6] in a line: Fluoride-triggered chemiluminescence of silyl-protected dioxetane.
Excerpt: as §1

The test system of the next data set is firefly luciferase. The following applies: cationic surfactant; cited from earlier work.
Setting [7] is: thermal decomposition in xylene.

SMILES strings stand for the structures. Read-outs that look alike come from different tables or passages of the source.

Regarding `COC(=O)c1cccc(O)c1` [methyl 3-hydroxylbenzoate], in data set [1] (ester cleavage product under conditions of fluoride triggering), the “fluorescence quantum yield (.PHI.^F)” value is 0.44.

Regarding `O=P(O)(O)Oc1ccc2c(c1)Oc1ccccc1C21OOC12C1CC3CC(C1)CC2C3` (stereo not drawn), the “period of chemiluminescence decay” value in data set [2] (4.2×10^-6 M dioxetane, 1.8 μg/mL protein, pH 10.3, 37° C.) turned out to be 3 min. Moreover, the “total light emission vs dioxetane concentration” value in data set [2] (pH 10.3, 37° C.) is given as “linearly dependent on the dioxetane concentration”. The “background luminescence from non-enzymatic hydrolysis, of enzymatic” value in data set [2] (pH 10.3 buffer, over 3 min, 37° C.) worked out at 0.2%. The compound further gave a half-life in [3] (25° C.) of 4380 days. Further, the “spontaneous decomposition in aqueous buffers” value in data set [3] (aqueous buffers) is given as “very slow spontaneous decomposition”. In addition, the activation energy in data set [3] (thermal) was 30.7 kcal/mol.

For the compound `COC1(c2cccc(O)c2)OOC12C1CC3CC(C1)CC2C3` (stereo not drawn) [2a, 4-(3-Hydroxyphenyl)-4-methoxyspiro[1,2-dioxetane-3,2'-adamantane]], in data set [4] (in xylene, 25° C., read-out: t1/2 at 25° C. (converted)), the half-life was 1500 days. In data set [4] (setting [7]), the Ea worked out at 28.3 and the “Log A” value worked out at 12.5. For the same compound, the “k(sec^-1) at 25° C.” value in data set [4] (thermal decomposition in xylene, 25° C.) was 5.38e-09 s⁻¹. For the same compound, the “luminescence after incubation with urease” value in the data set with Urease is “produced chemiluminescence”. In addition, the “period of chemiluminescence decay” value in data set [5] (10^-4 M, excess tetra-n-butylammonium hydroxide, DMSO, room temperature) was “several minutes”. In addition, the “chemiluminescence quantum yield (.PHI.CL)” value in data set [5] (base in DMSO) stood at 0.25. Moreover, the “light yield (chemiluminescence quantum yield)” value in data set [5] (base in water) is 8.9×10^-6. In data set [5] (tetra-n-butylammonium hydroxide in DMSO, room temperature), the “emission maximum for the chemiluminescence” value is 470 nm.

With `COC1(c2cccc(O[Si](C)(C)C(C)(C)C)c2)OOC12C1CC3CC(C1)CC2C3` (stereo not drawn), the “decomposition on the laboratory bench” value (in o-xylene, several months) is recorded as “no detectable decomposition”. Moreover, the activation energy (thermal decomposition) was 28.4 kcal/mol. In data set [6], this compound gave a chemiluminescence efficiency of 25% and a chemiluminescence quantum yield of 0.25. Further, the “efficiency for the formation of the singlet excited ester” value in [6] (corrected for fluorescence quantum yield of the ester) came to 57%. In addition, in data set [6] (fluoride, DMSO), the “maximum of the chemiluminescence spectrum” value was 470 nm.

`CCCCCCCCCCCCCC(=O)Nc1ccc2c(c1)C(=O)OC21c2ccc(O)cc2Oc2cc(O)ccc21` [compound 3]: the “self-quenching when used alone in solution” value in data set [1] (no CTAB) is “quenches itself when used alone in solution”.

Regarding `CCCCCCCCCCCCCCCC[N+](C)(C)C.[Br-]` [CTAB, cetyltrimethylammonium bromide], the “inhibition of the catalytic activity of the luciferase” value in the data set on firefly luciferase is listed as “complete inhibition”.
